Experimental data as given in ChEMBL document CHEMBL1147267, “New strongylophorines from the Okinawan marine sponge Petrosia (Strongylophora) corticata” (J Nat Prod, 2003).

test system: HeLa; experiment: Cytotoxicity against human HeLa cells; format: functional, cell-based

With C[C@@]12CC[C@@H]3[C@]4(CCC[C@]3(C)C(=O)OC4)[C@H]1CC[C@]1(C)Oc3ccc(O)cc3C[C@@H]21 [STRONGYLOPHORIN 2] as the molecule, how does the IC50 read?
The IC50 was > 100 µM.

With C[C@]12CCC[C@](C)(C(=O)O)[C@@H]1CC[C@]1(C)[C@@H]2CC[C@]2(C)Oc3ccc(O)cc3C[C@@H]12 [Strongylophorin-3] as the molecule, how does the IC50 read?
The IC50 was 45.2 µM.

C[C@]12CCC[C@](C)(C=O)[C@@H]1CC[C@]1(C)[C@@H]2CC[C@]2(C)Oc3ccc(O)cc3C[C@@H]12 [Strongylophorin-4] was tested. Which IC50 did it give?
The IC50 was 50.5 µM.

How did the IC50 turn out when CC1(C)CCC[C@]2(C)[C@H]3CC[C@]4(C)Oc5ccc(O)cc5C[C@H]4[C@]3(C)CC[C@@H]12 [Strongylophorin-22] was run?
The IC50 was 26.6 µM.

For CC1(C)CCC[C@@]2(CO)[C@H]1CC[C@]1(C)[C@@H]2CC[C@]2(C)Oc3ccc(O)cc3C[C@@H]12 [Strongylophorin-23], which IC50 is on record?
The IC50 was 62 µM.

For COc1ccc2c(c1)C[C@H]1[C@]3(C)CC[C@@H]4[C@](C)(CCC[C@]4(C)C(=O)O)[C@H]3CC[C@]1(C)O2 [Strongylophorine-1], which IC50 is on record?
The IC50 was 49.1 µM.

How did the IC50 turn out when CC1(C)CCC[C@@]2(C=O)[C@H]1CC[C@]1(C)[C@@H]2CC[C@]2(C)Oc3ccc(O)cc3C[C@@H]12 [Strongylophorine-24] was run?
The IC50 was > 100 µM.
